# Reference: ChEMBL document CHEMBL5053543, “Macrocyclic BACE1 inhibitors with hydrophobic cross-linked structures: Optimization of ring size and ring structure” (Bioorg Med Chem, 2021)
# Target: T1, Beta-secretase 1 (Homo sapiens, UniProt P56817)
# Experiment: Inhibition of recombinant BACE1 (unknown origin) using H-Ile-Lys-Thr-Glu-Glu-Ile-Ser-Glu-Val-Asn-Leu-Asp-Ala-Glu-Phe-Arg-His-Asp-Ser-Gly-NH2 peptide as substrate measured after 90 mins by analytical HPLC analysis
# T1 sequence (P56817 whole entry): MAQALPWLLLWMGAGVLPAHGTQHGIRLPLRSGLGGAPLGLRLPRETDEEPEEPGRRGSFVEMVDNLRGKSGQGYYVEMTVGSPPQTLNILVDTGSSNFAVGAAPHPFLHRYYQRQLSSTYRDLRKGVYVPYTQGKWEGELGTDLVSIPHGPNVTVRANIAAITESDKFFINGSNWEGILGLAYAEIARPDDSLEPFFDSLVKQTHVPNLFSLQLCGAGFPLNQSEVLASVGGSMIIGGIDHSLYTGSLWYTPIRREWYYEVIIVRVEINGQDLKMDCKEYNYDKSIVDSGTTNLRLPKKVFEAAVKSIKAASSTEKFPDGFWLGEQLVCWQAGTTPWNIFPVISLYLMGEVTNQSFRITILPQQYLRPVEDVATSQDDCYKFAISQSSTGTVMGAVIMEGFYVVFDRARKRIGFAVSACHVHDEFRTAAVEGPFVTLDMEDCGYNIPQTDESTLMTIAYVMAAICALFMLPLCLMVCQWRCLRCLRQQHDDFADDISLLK
row,Compound,IC50
1,CCC[C@@H]1NC(=O)[C@@H](NC(=O)[C@@H](N)CCC(=O)O)CC/C=C\CC[C@@H]([C@H](O)CNc2ccc(C)cc2)NC1=O,1410 µM
2,CCC[C@@H]1NC(=O)[C@@H](NC(=O)[C@@H](N)CCC(=O)O)COCCCCC[C@@H]([C@H](O)CNc2ccc(C)cc2)NC1=O,> 1500 µM
3,CCC[C@@H]1NC(=O)[C@@H](NC(=O)[C@@H](N)CCC(=O)O)C/C=C\CC[C@@H]([C@H](O)CNc2ccc(C)cc2)NC1=O,1050 µM
4,CCC[C@@H]1NC(=O)[C@@H](NC(=O)[C@@H](N)CCC(=O)O)CCCCC[C@@H]([C@H](O)CNc2ccc(C)cc2)NC1=O,1400 µM
5,CCC[C@@H]1NC(=O)[C@@H](NC(=O)[C@@H](N)CCC(=O)O)COC/C=C\CC[C@@H]([C@H](O)CNc2ccc(C)cc2)NC1=O,> 1500 µM
6,CCC[C@@H]1NC(=O)[C@@H](NC(=O)[C@@H](N)CCC(=O)O)COC/C=C/CC[C@@H]([C@H](O)CNc2ccc(C)cc2)NC1=O,> 1500 µM
7,CCC[C@@H]1NC(=O)[C@@H](NC(=O)[C@@H](N)CCC(=O)O)[C@@H](C)OC/C=C/C[C@@H]([C@H](O)CNc2ccc(C)cc2)NC1=O,1420 µM
8,CCC[C@@H]1NC(=O)[C@@H](NC(=O)[C@@H](N)CCC(=O)O)C/C=C/CC[C@@H]([C@H](O)CNc2ccc(C)cc2)NC1=O,> 1500 µM

# These reach a lower IC50. Values come first.
row,IC50,Compound
1,1000 µM,CCC[C@@H]1NC(=O)[C@@H](NC(=O)[C@@H](N)CCC(=O)O)[C@H](C)OC/C=C/C[C@@H]([C@H](O)CNc2ccc(C)cc2)NC1=O
2,1.2 µM,CCC[C@@H]1NC(=O)[C@@H](NC(=O)[C@@H](N)CCC(=O)O)C(C)(C)OC/C=C\C[C@@H]([C@H](O)CNc2ccc(CC(=O)O)cc2)NC1=O
3,380 µM,CCC[C@@H]1NC(=O)[C@@H](NC(=O)[C@@H](N)CCC(=O)O)CC/C=C/CC[C@@H]([C@H](O)CNc2ccc(C)cc2)NC1=O
4,135 µM,CCC[C@@H]1NC(=O)[C@@H](NC(=O)[C@@H](N)CCC(=O)O)[C@H](C)OCCCC[C@@H]([C@H](O)CNc2ccc(C)cc2)NC1=O
5,11.7 µM,CCC[C@@H]1NC(=O)[C@@H](NC(=O)[C@@H](N)CCC(=O)O)[C@H](C)OC/C=C\C[C@@H]([C@H](O)CNc2ccc(C)cc2)NC1=O
6,780 µM,CCC[C@@H]1NC(=O)[C@@H](NC(=O)[C@@H](N)CCC(=O)O)CCCCCC[C@@H]([C@H](O)CNc2ccc(C)cc2)NC1=O
7,1000 µM,CCC[C@@H]1NC(=O)[C@@H](NC(=O)[C@@H](N)CCC(=O)O)[C@@H](C)OCCCC[C@@H]([C@H](O)CNc2ccc(C)cc2)NC1=O
8,117 µM,CCC[C@@H]1NC(=O)[C@@H](NC(=O)[C@@H](N)CCC(=O)O)[C@@H](C)OC/C=C\C[C@@H]([C@H](O)CNc2ccc(C)cc2)NC1=O
9,6.1 µM,CCC[C@@H]1NC(=O)[C@@H](NC(=O)[C@@H](N)CCC(=O)O)C(C)(C)OCCCC[C@@H]([C@H](O)CNc2ccc(C)cc2)NC1=O
10,3.9 µM,CCC[C@@H]1NC(=O)[C@@H](NC(=O)[C@@H](N)CCC(=O)O)C(C)(C)OC/C=C\C[C@@H]([C@H](O)CNc2ccc(C)cc2)NC1=O
11,6.1 µM,CCC[C@H](NC(=O)[C@@H](NC(=O)[C@@H](N)CCC(=O)O)[C@@H](C)CC)C(=O)N[C@@H](CC(C)C)[C@H](O)CNc1ccc(C)cc1
12,1.6 µM,CCC[C@@H]1NC(=O)[C@@H](NC(=O)[C@@H](N)CCC(=O)O)C(C)(C)OCCCC[C@@H]([C@H](O)CNc2ccc(CC(=O)O)cc2)NC1=O

# Target: T1, Beta-secretase 1
# Experiment: Inhibition of recombinant BACE1 (unknown origin) at 1500 uM using H-Ile-Lys-Thr-Glu-Glu-Ile-Ser-Glu-Val-Asn-Leu-Asp-Ala-Glu-Phe-Arg-His-Asp-Ser-Gly-NH2 peptide as substrate measured after 90 mins by analytical HPLC analysis relative to control
row,inhibition,Compound
1,20%,CCC[C@@H]1NC(=O)[C@@H](NC(=O)[C@@H](N)CCC(=O)O)COCCCCC[C@@H]([C@H](O)CNc2ccc(C)cc2)NC1=O
2,20%,CCC[C@@H]1NC(=O)[C@@H](NC(=O)[C@@H](N)CCC(=O)O)COC/C=C\CC[C@@H]([C@H](O)CNc2ccc(C)cc2)NC1=O
3,20%,CCC[C@@H]1NC(=O)[C@@H](NC(=O)[C@@H](N)CCC(=O)O)COC/C=C/CC[C@@H]([C@H](O)CNc2ccc(C)cc2)NC1=O
4,20%,CCC[C@@H]1NC(=O)[C@@H](NC(=O)[C@@H](N)CCC(=O)O)C/C=C/CC[C@@H]([C@H](O)CNc2ccc(C)cc2)NC1=O
